Target: T1, Ba/F3-TEL-FGFR3 cells (Homo sapiens, UniProt P22607)
T1 construct: fused on or other part: The N-terminal oligomerising part of TEL (ETV6) is fused before the intracellular kinase part of FGFR3; P41212 (Transcription factor ETV6)
Experiment: FGFR3 cellular assay: proliferation of transformed Ba/F3-TEL-FGFR3 cells (AlamarBlue)
Format: cell-based
Settings: 48 hours incubation, class symbols
Description: Compounds of the invention are tested for their ability to inhibit transformed Ba/F3-TEL-FGFR3 cells proliferation, which is dependent on FGFR3 cellular kinase activity. Ba/F3-TEL-FGFR3 are cultured up to 800,000 cells/mL in suspension, with RPMI 1640 supplemented with 10% fetal bovine serum as the culture medium. Cells are dispensed into 384-well format plate at 5000 cell/well in […], culture medium. Compounds of the invention are dissolved and diluted in dimethylsulfoxide (DMSO). Twelve points 1:3 serial dilutions are made into DMSO to create concentrations gradient ranging typically from 10 mM to 0.05 μM. Cells are added with 50 nL of diluted compounds and incubated for 48 hours in cell culture incubator. AlamarBlue® (TREK Diagnostic Systems), which can be used to monitor the reducing environment created by proliferating cells, are added to cells at final concentration of 10%. After additional four hours of incubation in a 37° C. cell culture incubator, fluorescence signals from reduced AlamarBlue® (Excitation at 530 nm, Emission at 580 nm) are quantified on Analyst GT (Molecular Devices Corp.). IC50 values are calculated by linear regression analysis of the percentage inhibition of each compound at 12 concentrations.

T1 sequence (P22607 whole entry, change not shown, the tested form may be a part): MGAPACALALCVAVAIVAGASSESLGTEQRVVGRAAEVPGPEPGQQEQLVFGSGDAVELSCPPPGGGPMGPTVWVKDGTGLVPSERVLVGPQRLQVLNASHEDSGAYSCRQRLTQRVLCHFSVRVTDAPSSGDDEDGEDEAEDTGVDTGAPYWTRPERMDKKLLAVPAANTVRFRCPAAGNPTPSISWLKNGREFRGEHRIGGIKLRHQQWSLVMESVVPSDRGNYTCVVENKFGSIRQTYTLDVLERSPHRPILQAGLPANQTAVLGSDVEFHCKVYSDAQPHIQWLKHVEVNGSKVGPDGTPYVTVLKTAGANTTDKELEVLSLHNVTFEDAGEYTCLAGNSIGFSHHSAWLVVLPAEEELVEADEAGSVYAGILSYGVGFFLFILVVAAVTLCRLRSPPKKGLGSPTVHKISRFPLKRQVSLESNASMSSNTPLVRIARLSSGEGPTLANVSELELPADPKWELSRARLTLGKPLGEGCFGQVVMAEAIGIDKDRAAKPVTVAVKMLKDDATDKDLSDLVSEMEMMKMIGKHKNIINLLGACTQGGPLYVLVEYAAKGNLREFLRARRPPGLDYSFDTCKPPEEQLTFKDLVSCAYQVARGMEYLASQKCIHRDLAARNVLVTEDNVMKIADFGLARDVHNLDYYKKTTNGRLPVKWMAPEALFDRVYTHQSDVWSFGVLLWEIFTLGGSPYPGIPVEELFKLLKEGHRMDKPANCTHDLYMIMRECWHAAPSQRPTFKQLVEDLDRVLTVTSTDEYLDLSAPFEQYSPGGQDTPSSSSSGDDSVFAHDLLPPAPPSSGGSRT

Structure (SMILES) | GI50 [nM]
CCNC(=O)c1cc(OC)c(Cl)c(Nc2ncncc2-c2cc(Nc3ccc(CN4CCN(C)CC4)cn3)ncn2)c1Cl [Compound 34, 2,4-Dichloro-N-ethyl-5-methoxy-3-{6-[5-(4-methyl-piperazin-1-ylmethyl)-pyridin-2-ylamino]-[4,5′]bipyrimidinyl-4′-ylamino}-benzamide] | 250 to 500
COc1cc(OC)c(Cl)c(Nc2nccnc2-c2cc(Nc3ccc(CN4CCN(C(=O)CO)CC4)cn3)ncn2)c1Cl [Compound 101] | < 100
CCN(CC)CCOc1ccc(Nc2cc(-c3cncnc3Nc3c(Cl)c(OC)cc(OC)c3Cl)ncn2)cc1 [Compound 17, N4′-(2,6-Dichloro-3,5-dimethoxy-phenyl)-N6-[4-(2-diethylamino-ethoxy)-phenyl]-[4,5′]bipyrimidinyl-6,4′-diamine] | < 100
COc1cc(OC)c(F)c(Nc2ncncc2-c2cc(Nc3ccc(CCN4CCOCC4)cn3)ncn2)c1F [Compound 85, N4′-(2,6-Difluoro-3,5-dimethoxy-phenyl)-N6-[5-(2-morpholin-4-yl-ethyl)-pyridin-2-yl]-[4,5′]bipyrimidinyl-6,4′-diamine] | < 100
COc1cc(OC)c(Cl)c(Nc2ncncc2-c2cc(NC(=O)NCCN3CCN(C)CC3)ncn2)c1Cl [Compound 8, 1-[4′-(2,6-Dichloro-3,5-dimethoxy-phenylamino)-[4,5′]bipyrimidinyl-6-yl]-3-[2-(4-methyl-piperazin-1-yl)-ethyl]-urea] | 100 to 250
CCN1CCN(c2ccc(Nc3cc(-c4cncnc4Nc4c(C)c(OC)cc(OC)c4Cl)ncn3)nc2)CC1 [Compound 48, N4′-(2-Chloro-3,5-di-methoxy-6-methyl-phenyl)-N6-[5-(4-ethyl-piperazin-1-yl)-pyridin-2-yl]-[4,5′]bipyrimidinyl-6,4′-diamine] | < 100
COc1cc(C(N)=O)c(Cl)c(Nc2ncncc2-c2cc(Nc3ccc(CN4CCOCC4)cn3)ncn2)c1Cl [Compound 26, 2,4-Dichloro-5-methoxy-3-[6-(5-morpholin-4-yl-methyl-pyridin-2-ylamino)-[4,5′]bipyrimidinyl-4′-ylamino]-benzamide] | 250 to 500
COc1cc(OC)c(Cl)c(Nc2ncncc2-c2cc(Nc3ccc(CN4CCN(C(=O)CO)CC4)cn3)ncn2)c1F [Compound 88, 1-(4-{6-[4′-(2-Chloro-6-fluoro-3,5-dimethoxy-phenylamino)-[4,5′]bipyrimidinyl-6-ylamino]-pyridin-3-ylmethyl}-piperazin-1-yl)-2-hydroxy-ethanone] | < 100
COc1cc(OC)c(Cl)c(Nc2ncncc2-c2cc(Nc3ccc(C(C)O)cn3)ncn2)c1C (centres unmarked) [Compound 81, 1-{6-[4′-(2-Chloro-3,5-dimethoxy-6-methyl-phenylamino)-[4,5′]bipyrimidinyl-6-ylamino]-pyridin-3-yl}-ethanol] | < 100
COc1cc(OC)c(F)c(Nc2ncncc2-c2cc(Nc3ccc(CN4CCN(C(C)=O)CC4)cn3)ncn2)c1F [Compound 66, 1-(4-{6-[4′-(2,6-Difluoro-3,5-dimethoxy-phenylamino)-[4,5′]bipyrimidinyl-6-ylamino]-pyridin-3-ylmethyl}-piperazin-1-yl)-ethanone] | < 100
COc1cc(Nc2ncncc2-c2cc(Nc3cc(CN4CCOCC4)ccn3)ncn2)c(F)c(OC)c1 [Compound 71, N4′-(2-Fluoro-3,5-dimethoxy-phenyl)-N6-(4-morpholin-4-ylmethyl-pyridin-2-yl)-[4,5′]bipyrimidinyl-6,4′-diamine] | < 100
COc1cc(OC)c(Cl)c(Nc2nccnc2-c2cc(Nc3ccc(CN4CCN(CCO)CC4)cn3)ncn2)c1Cl [Compound 100] | < 100
COc1cc(OC)c(Cl)c(Nc2nccnc2-c2cc(Nc3ccc(CN4CCOCC4)cn3)ncn2)c1F [Compound 95, {6-[3-(2-chloro-3,5-dimethoxy-6-fluoro phenylamino)-pyrazin-2-yl]-pyrimidin-4-yl}-(5-morpholin-4-ylmethyl-pyridin-2-yl)-amine] | < 100
COc1cc(OC)c(Cl)c(Nc2ncncc2-c2cc(Nc3cc(CN4CCCC4)ccn3)ncn2)c1F [Compound 60, N4′-(2-Chloro-6-fluoro-3,5-dimethoxy-phenyl)-N6-(4-pyrrolidin-1-ylmethyl-pyridin-2-yl)-[4,5′]bipyrimidinyl-6,4′-diamine] | < 100
COc1cc(Nc2ncncc2-c2cc(Nc3ccc(CN4CCOCC4)cn3)ncn2)c(Cl)c(OC)c1 [Compound 37, N4′-(2-Chloro-3,5-dimethoxy-phenyl)-N6-(5-morpholin-4-ylmethyl-pyridin-2-yl)-[4,5′]bipyrimidinyl-6,4′-diamine] | 100 to 250
CCN1CCN(Cc2ccc(Nc3cc(-c4cncnc4Nc4c(Cl)c(OC)cc(OC)c4Br)ncn3)nc2)CC1 [Compound 50, N4′-(2-Bromo-6-chloro-3,5-dimethoxy-phenyl)-N6-[5-(4-ethyl-piperazin-1-ylmethyl)-pyridin-2-yl]-[4,5′]bipyrimidinyl-6,4′-diamine] | < 100
COc1cc(OC)c(Cl)c(Nc2ncncc2-c2cc(Nc3ccc(CN4CCN(C(=O)N(C)C)CC4)cn3)ncn2)c1Cl [Compound 19, 4-{6-[4′-(2,6-Dichloro-3,5-dimethoxy-phenylamino)-[4,5′]bipyrimidinyl-6-ylamino]-pyridin-3-ylmethyl}-piperazine-1-carboxylic acid dimethyl-amide] | < 100
COc1cc(OC)c(Cl)c(Nc2ncncc2-c2cc(Nc3ccc(CN4CCN(C)CC4)cn3)ncn2)c1Cl [Compound 3, N4′-(2,6-Dichloro-3,5-dimethoxy-phenyl)-N6-[5-(4-methyl-piperazin-1-ylmethyl)-pyridin-2-yl]-[4,5′]bipyrimidinyl-6,4′-diamine] | < 100
COc1cc(OC)c(Cl)c(Nc2ncncc2-c2cc(Nc3ccc(CN4CCN(C(C)=O)CC4)cn3)ncn2)c1F [Compound 61, 1-(4-{6-[4′-(2-Chloro-6-fluoro-3,5-dimethoxy-phenylamino)-[4,5′]bipyrimidinyl-6-ylamino]-pyridin-3-ylmethyl}-piperazin-1-yl)-ethanone] | < 100
COc1cc(OC)c(Cl)c(Nc2ncncc2-c2cc(Nc3cc(CN4CCOCC4)ccn3)ncn2)c1F [Compound 46, N4′-(2-Chloro-6-fluoro-3,5-dimethoxy-phenyl)-N6-(4-morpholin-4-ylmethyl-pyridin-2-yl)-[4,5′]bipyrimidinyl-6,4′-diamine] | < 100
COc1cc(OC)c(Cl)c(Nc2ncncc2-c2cc(Nc3ccc(CCN4CCOCC4)cn3)ncn2)c1C [Compound 86, N4′-(2-Chloro-3,5-dimethoxy-6-methyl-phenyl)-N6-[5-(2-morpholin-4-yl-ethyl)-pyridin-2-yl]-[4,5′]bipyrimidinyl-6,4′-diamine] | 250 to 500
COc1cc(C(=O)NC2CC2)c(Cl)c(Nc2ncncc2-c2cc(Nc3ccc(CN4CCN(C(C)=O)CC4)cn3)ncn2)c1Cl [Compound 67, 3-{6-[5-(4-Acetyl-piperazin-1-ylmethyl)-pyridin-2-ylamino]-[4,5′]bipyrimidinyl-4′-ylamino}-2,4-dichloro-N-cyclopropyl-5-methoxy-benzamide] | < 100
COc1cc(OC)c(F)c(Nc2ncncc2-c2cc(Nc3ccc(CN4CCN(CCO)CC4)cn3)ncn2)c1F [Compound 74, 2-(4-{6-[4′-(2,6-Difluoro-3,5-di-methoxy-phenylamino)-[4,5′]bipyrimidinyl-6-ylamino]-pyridin-3-ylmethyl}-piperazin-1-yl)-ethanol] | < 100
COc1cc(OC)c(F)c(Nc2ncncc2-c2cc(Nc3ccc(CN4CCN(C(=O)CO)CC4)cn3)ncn2)c1F [Compound 89] | < 100
CCNC(=O)c1cc(OC)c(Cl)c(Nc2ncncc2-c2cc(Nc3cc(CN4CCN(C)CC4)ccn3)ncn2)c1Cl [Compound 30, 2,4-Dichloro-N-ethyl-5-methoxy-3-{6-[4-(4-methyl-piperazin-1-ylmethyl)-pyridin-2-ylamino]-[4,5′]bipyrimidinyl-4′-ylamino}-benzamide] | < 100
CCNC(=O)c1cc(OC)c(Cl)c(Nc2ncncc2-c2cc(Nc3ccc(CN4CCCC4)cn3)ncn2)c1Cl [Compound 35, 2,4-Dichloro-N-ethyl-5-methoxy-3-[6-(5-pyrrolidin-1-ylmethyl-pyridin-2-ylamino)-[4,5′]bipyrimidinyl-4′-ylamino]-benzamide] | < 100
COc1cc(OC)c(Cl)c(Nc2ncncc2-c2cc(Nc3cc(CN4CCOCC4)ccn3)ncn2)c1C [Compound 54, N4′-(2-Chloro-3,5-dimethoxy-6-methyl-phenyl)-N6-(4-morpholin-4-ylmethyl-pyridin-2-yl)-[4,5′]bipyrimidinyl-6,4′-diamine] | < 100
CCN1CCN(Cc2ccc(Nc3cc(-c4cncnc4Nc4cc(OC)cc(OC)c4Cl)ncn3)nc2)CC1 [Compound 38, N4′-(2-Chloro-3,5-dimethoxy-phenyl)-N6-[5-(4-ethyl-piperazin-1-ylmethyl)-pyridin-2-yl]-[4,5′]bipyrimidinyl-6,4′-diamine] | 100 to 250
COc1cc(OC)c(Cl)c(Nc2nccnc2-c2cc(Nc3ccc(C(C)O)cn3)ncn2)c1Cl (centres unmarked) [Compound 102, {6-[3-(2,6-Dichloro-3,5-dimethoxy-phenylamino)-pyrazin-2-yl]-pyrimidin-4-yl}-(5-[1-hydroxyethyl]-pyridin-2-yl)-amine] | < 100

Reference: patent US8026243B2, “[4,5′]Bipyrimidinyl-6,4′-diamine derivatives as protein kinase inhibitors” (Novartis AG, priority 2006, dated 2011)
